US8835392B2, “Mimetic peptides and the use thereof in the form of 20S, 26S and immunoproteasome inhibitors” (Technische Universität, priority 2005, dated 2014)
Where a SMILES comes first, the peptide text is derived from it. The star is where a group is joined. Cbz = O=C(OCc1ccccc1)*; OtBu = CC(C)(C)O*

Columns and labels:
[1] = molecular target: T1, 20S proteasome β5 chymotrypsin-like activity (GLL-MCA) (Homo sapiens, UniProt P20618+P28074); assay: Protease assay, chymotrypsin-like activity of isolated 20S proteasomes (GLL substrate); format: biochemical; conditions: isolated 20S proteasome; GLL-MCA 50 μM; 15 min pre-incubation; read-out: IC50 β5 Chym.-like (L)
T1 construct: Proteasomes were isolated from red blood cells; from tissue; host or cells: red blood cells
Method: (§1) Proteasomes were isolated from red blood cells. Cells were lysed with DTT (1 mM), and the stroma-free supernatant was loaded on DEAE-sepharose (Toyopearls). Proteasome was eluted with an NaCl-gradient in TEAD (20 mM TrisCl pH 7.4, 1 mM EDTA, 1 mM azide, 1 mM DTT) of 100 to 300 mM NaCl. Proteasome was concentrated using ammonium sulfate-precipitation (between 40 and 70% saturation) and was separated in a 10-40% sucrose-gradient through centrifugation at 40.000 rpm for 16 hours (SW40; L7, Beckman & Coulter). Finally, the proteasomes were purified on a MonoQ-column and eluted with an NaCl-gradient at about 280 mM NaCl. The fractions containing purified proteasome were dialysed against 50 mM NaCl in TEAD and stored on ice. The purity was determined using SDS-PAGE.
(§2) Suc-LLVY-AMC, Z-VGR-AMC and LLE-AMC (BACHEM, Calbiochem) was used, in order to determine the chymotrypsin-like, trypsin-like or caspase-like (post-acidic)-activities of the proteasome. Substrate was incubated with proteasome at 37° C. in assay-buffer (20 mM Tris/Cl, pH 7.2, 1 mM EDTA, 1 mM DTT) for one hour. 100 ng proteasome was pre-incubated with 0.01-10 μM of the inhibitor for […]. The reaction was started by the addition of substrate (50 μM). The AMC as released was detected using fluorescence emission at 460 nm (excitation at 390 nm) using a TECAN-fluorimeter. The activity was calculated in fluorescence-units. The inhibition is depicted by IC50-values.
(§3) The IC50-values form the inhibition of the proteasome were calculated at increasing concentrations of the inhibitor. The samples were pre-incubated for 15 min in ice. The assay was started through the addition of 50 μM of one of the following fluorogenic peptide substrates:
(§4) The release of MCA was determined at 460 nm emission (excitation 390 nm). The IC50-values as calculated for MG132 served as controls.

[2] = molecular target: T2, 20S proteasome β2 trypsin-like activity (VGR-MCA) (Homo sapiens, UniProt P49720+Q99436); assay: Protease assay, trypsin-like activity of isolated 20S proteasomes; format: biochemical; conditions: isolated 20S proteasome; VGR-MCA 50 μM; 15 min pre-incubation; read-out: IC50 β2 Trypsin-like (R)
T2 construct: Proteasomes were isolated from red blood cells; from tissue; host or cells: red blood cells
Method: as §1, §2
The effects thereof were compared with the one of the commonly used proteasomal inhibitor 3 (MG132). The chymotrypsin-like (Suc-LLVY-AMC), the trypsin-like (Bz-VGR-AMC), and the caspase-like (Z-LLE-AMC)-activities of 20S proteasomes were determined following incubation for one hour at 37° C.
as §3, §4

Fibroblasts = assay: Viability of fibroblasts (control); format: cell-based; conditions: Fibroblast, identical conditions (72 h), read-out: concentration for 50% reduction of the viability
[3] = test system: T3, 20S proteasome of S. cerevisiae; assay: Co-crystallisation with 20S yeast-proteasome
T3 construct: crystals of the 20S proteasome of S. cerevisiae were generated in hanging drops
Method: For this, crystals of the 20S proteasome of S. cerevisiae were generated in hanging drops at 24° C., as described earlier (6), and incubated for 60 min with compound 15. The protein concentration as used for the crystallization was 40 mg/ml in Tris-HCl (10 mM, pH 7.5), and EDTA (1 mM). The drops contained 3 μl protein and 2 μl reservoir-solution, containing 30 mM magnesium acetate, 100 mM morpholino ethanesulfonic acid (pH 7.2) and 10% MPD.
The space group belonged to P21 with cellular dimensions of a=135.8 Å, b=300.1 ÅA, c=144.4 Å, and (β=113.1°. Data for 2.8 Å were collected using synchrotron-radiation with λ=1.05 Å on the BW6-beamline of the DESY, Hamburg, Germany. Crystals were soaked in a cryo-protecting buffer (30% MPD, 20 mM magnesium acetate, 100 mM morpholino ethanesulfonic acid pH 6.9), and frozen and in a stream of liquid nitrogen gas at 90K (Oxford Cryo Systems). X-ray-intensities were evaluated using the MOSFILM program-package (Version 6.1), and data reduction was performed with CCP4 (24). The anisotropy of the diffraction was corrected by a general anisotropic temperature factor through comparison of the observed and calculated structure-amplitudes using the program X-PLOR (25). An overall number of 2383416 reflexions that led to 248616 unique reflexions (96.9% completeness), was collected. […]

SMILES: CC(C)CC(C=O)NC(=O)C(CC(=O)OC(C)(C)C)NC(=O)C(CC(C)C)NC(=O)OCc1ccccc1 (stereo not drawn) [Compound 15, Z-Leu-Asp(O^tBu)Leu-CHO] (Cbz-Leu-Asp(OtBu)-Leu-aldehyde; configuration not given here)
- IC50 [1]: 31 nM
- IC50 [2]: 155 nM
- IC50 (Fibroblasts): 500 to 1000 nM
- binding mode to Thr1Oγ in crystal structure ([3]; 2.8 Å): covalent hemiacetal bond
- specificity for the subunits in crystal structure ([3]; high concentrations of the inhibitors (10 mM)): no specificity for the subunits
